Some test systems named below: A549 NSCLC; SK-MEL-28 melanoma; OVCAR-5 ovarian; UACC-257 melanoma; ACHN renal; SN12C renal; M14 melanoma; HCT-116 colon; SF-295 CNS; MDA-MB-231 breast; K-562 leukemia.
Common to all, as to test: inhibition of tumour cell growth, NCI panel, 48 h

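Exposure lasted 48 hours, with cells grown in 96-well plates and compounds tested at five concentrations. Definition used: TGI = concentration required for complete inhibition of growth.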

As for `CC1(C)O[C@H]2OC(CO)C(N=[N+]=[N-])[C@H]2O1` (some centres undefined), the TGI with A549 NSCLC, in the experiment with SK-MEL-28 melanoma, in the experiment with OVCAR-5 ovarian, in the experiment on UACC-257 melanoma, with ACHN renal and with SN12C renal was above 100 µM each time. The TGI in the experiment on M14 melanoma, with HCT-116 colon, in the experiment on SF-295 CNS and in the experiment on MDA-MB-231 breast was above 100 µM each time.

`COc1cccc(-c2nc(-c3cnccn3)n(C/C=C/c3ccccc3)n2)c1`: the TGI in the experiment on A549 NSCLC, in the experiment on OVCAR-5 ovarian, in the experiment on UACC-257 melanoma, in the experiment with ACHN renal, in the experiment on SN12C renal and with K-562 leukemia was above 10 µM each time. The TGI in the experiment with M14 melanoma and in the experiment on SF-295 CNS was above 10 µM in each case.

Regarding `CCOC(=O)CCC(NC(=O)c1ccc(NCc2ccc3nc(-c4ccccc4)c(Cl)nc3c2)cc1)C(=O)OCC` (centres undefined), the TGI in the experiment on A549 NSCLC is above 100 µM; with OVCAR-5 ovarian, above 100 µM; in the experiment on ACHN renal it was above 100 µM; in the experiment with SN12C renal, above 100 µM; in the experiment with K-562 leukemia, above 100 µM; in the experiment with M14 melanoma, 39.5 µM. The TGI in the experiment on HCT-116 colon and with SF-295 CNS was above 100 µM in each case.

`Cc1ccc(NC(=O)C(=O)C2C(=O)NC(=O)NC2=O)cc1C`: the TGI in the experiment with A549 NSCLC, in the experiment on SK-MEL-28 melanoma, in the experiment with OVCAR-5 ovarian, in the experiment on UACC-257 melanoma, in the experiment with ACHN renal and in the experiment with SN12C renal was above 100 µM throughout. Besides, the TGI in the experiment on K-562 leukemia, with M14 melanoma, with HCT-116 colon and with SF-295 CNS was above 100 µM throughout.

Turning to `c1ccc2c(c1)OCCOCCOc1ccccc1OCCO2`, the TGI in the experiment with A549 NSCLC, in the experiment on SK-MEL-28 melanoma, in the experiment with OVCAR-5 ovarian, in the experiment with UACC-257 melanoma, with ACHN renal and in the experiment with SN12C renal was above 100 µM each time. Besides, the TGI in the experiment with K-562 leukemia, with M14 melanoma, in the experiment with HCT-116 colon and with SF-295 CNS was above 100 µM each time.

With `CC(=O)OCCOCNC(=S)N/N=C/c1ccc([N+](=O)[O-])s1`, the TGI is above 100 µM in the experiment with A549 NSCLC; above 100 µM in the experiment on SK-MEL-28 melanoma; above 100 µM in the experiment with OVCAR-5 ovarian; 66.7 µM in the experiment on UACC-257 melanoma; above 100 µM in the experiment with ACHN renal; above 100 µM in the experiment on SN12C renal. Further, the TGI in the experiment with K-562 leukemia is above 100 µM; with M14 melanoma, above 100 µM; with HCT-116 colon, 54 µM; with SF-295 CNS it was above 100 µM.

As for `COCn1cnc2c(=O)nc(SC)n(-c3ccccc3)c21`, the TGI in the experiment with A549 NSCLC, in the experiment on OVCAR-5 ovarian, in the experiment with UACC-257 melanoma, in the experiment with ACHN renal, with SN12C renal and in the experiment with K-562 leukemia was above 100 µM each time. Moreover, the TGI in the experiment on M14 melanoma, in the experiment with HCT-116 colon, in the experiment on SF-295 CNS and in the experiment with MDA-MB-231 breast was above 100 µM in each case.

Consider `O=c1cc(NNc2cccc(Cl)c2)[nH]c(=O)[nH]1`, for which the TGI with A549 NSCLC, in the experiment with SK-MEL-28 melanoma, with OVCAR-5 ovarian, in the experiment with UACC-257 melanoma, in the experiment with ACHN renal and in the experiment on K-562 leukemia was above 100 µM each time. For the same molecule, the TGI in the experiment with M14 melanoma was 37.7 µM; in the experiment with HCT-116 colon, 31.9 µM; in the experiment with MDA-MB-231 breast, 32.1 µM.

In the case of `CCOc1cc(NC(C)=O)ccc1C(=O)NNS(=O)(=O)c1ccc(NC(C)=O)cc1`, the TGI in the experiment on A549 NSCLC, in the experiment with SK-MEL-28 melanoma, in the experiment on OVCAR-5 ovarian, in the experiment on UACC-257 melanoma, in the experiment on ACHN renal and in the experiment on SN12C renal was above 100 µM throughout. Moreover, the TGI with K-562 leukemia, in the experiment on M14 melanoma, with HCT-116 colon and with SF-295 CNS was above 100 µM throughout.

Take `COc1ccc(/C=N/N=C(\N)NO)c(OC)c1C`: the TGI in the experiment on A549 NSCLC was 44.9 µM; in the experiment with SK-MEL-28 melanoma, above 100 µM; in the experiment with OVCAR-5 ovarian it was 7.69 µM; with UACC-257 melanoma, above 100 µM; in the experiment with ACHN renal, 43.1 µM; with SN12C renal it was above 100 µM. Also, the TGI with K-562 leukemia, with HCT-116 colon and in the experiment on SF-295 CNS was above 100 µM each time.

As for `CCCCC1Cc2cc(O)ccc2-c2nc3cc(O)ccc3n21` (centres undefined) (tested in a mixture with another compound), the TGI is 38.6 µM in the experiment on A549 NSCLC; 34.8 µM with OVCAR-5 ovarian; 45.6 µM in the experiment on UACC-257 melanoma; 33.7 µM in the experiment on ACHN renal; 36 µM in the experiment with SN12C renal; 41.3 µM in the experiment on K-562 leukemia. The TGI in the experiment with M14 melanoma stood at 28.6 µM; with HCT-116 colon, 27 µM; in the experiment on SF-295 CNS, 33.4 µM; in the experiment on MDA-MB-231 breast it was 31.3 µM.

In the case of `O=C1c2c(Br)sc(Br)c2C(=O)C1(O)O`, the TGI in the experiment with A549 NSCLC is above 100 µM; in the experiment with SK-MEL-28 melanoma it was above 100 µM; in the experiment on OVCAR-5 ovarian, 50.3 µM; in the experiment with UACC-257 melanoma, 37.4 µM; with ACHN renal it was above 100 µM; in the experiment on SN12C renal it was above 100 µM. Moreover, the TGI in the experiment with K-562 leukemia was 79.8 µM; in the experiment on M14 melanoma, 33.6 µM; with HCT-116 colon, 38.4 µM; in the experiment with SF-295 CNS it was above 100 µM.

For `CC1(C)OP(=O)(O)C=C1Sc1ccc([N+](=O)[O-])cc1[N+](=O)[O-]`, the TGI in the experiment on A549 NSCLC, in the experiment with SK-MEL-28 melanoma, in the experiment with OVCAR-5 ovarian, in the experiment on UACC-257 melanoma, in the experiment with ACHN renal and with SN12C renal was above 100 µM in each case. Besides, the TGI in the experiment on K-562 leukemia, in the experiment on M14 melanoma, in the experiment with HCT-116 colon and in the experiment on SF-295 CNS was above 100 µM each time.

(Values after PubChem BioAssay (NCI).)
